The subject of test [1] is classical pathway of complement. In words: Classical pathway complement inhibition ELISA (C3b deposition) in normal human plasma. The format is biochemical. Particulars: human plasma diluted 1:40; mean of at least three experiments. The protocol: For this purpose, microtiter wells (NUNC) were coated with 50 μl of 1% ovalbumin in PBS (pH 7.4) at ambient temperature for 2 h. The wells were blocked with 200 μl of 1% BSA in PBS for 1 h, then coated with 50 μl of 1:1000 α-ovalbumin polyclonal antibody in PBS for 1 h. Between each step, the plate was washed thrice with 200 μl of 0.05% Tween 20 in PBS (PBS-T); 30 μl of VBS (Veronal buffer 1×; 5 mM veronal, pH 7.4, containing 150 mM NaCl, 0.5 mM CaCl2 and 0.5 mM MgCl2) were placed in all but the first well of each row of the 96-well plate, and 5 μM peptide solutions in VBS were prepared. […] Human plasma diluted 1:40 in VBS was incubated for 15 min with peptide of 0.005 to 2.5 μM. After washing with PBS-T, 50 μl/well of 1:1000 goat a-human C3 HRP conjugated antibody in 1% BSA in PBS was added to the wells and incubated for 1 h at room temperature. Complement fixation indicating activation was detected by the addition of HRP substrate (0.05% ABTS and 0.1% of 30% aqueous H2O2 in 0.1 M sodium citrate, pH 4.2) and read at 405 nm. The absorbance data obtained at 405 nm were translated into % inhibition, considering 100% to be equal to complement activation in the absence of peptide. The percent inhibition was plotted against the logarithm of concentrations, and the resulting data set was fitted to the equation “log(inhibitor) vs. normalized response” using GraphPad Prism 5 (La Jolla, CA). IC50 values were obtained from the fitted parameters of the mean of at least three independent experiments. Cp40 was always used as the internal control.
Background: ELISA stands for enzyme-linked immunosorbent assay.

The target of the next test is T1, human C3b (Homo sapiens, UniProt P01024).
T1 construct: purchased Complement Technology, Inc., Tyler, TX
T1 sequence (P01024 23-667 limits assumed): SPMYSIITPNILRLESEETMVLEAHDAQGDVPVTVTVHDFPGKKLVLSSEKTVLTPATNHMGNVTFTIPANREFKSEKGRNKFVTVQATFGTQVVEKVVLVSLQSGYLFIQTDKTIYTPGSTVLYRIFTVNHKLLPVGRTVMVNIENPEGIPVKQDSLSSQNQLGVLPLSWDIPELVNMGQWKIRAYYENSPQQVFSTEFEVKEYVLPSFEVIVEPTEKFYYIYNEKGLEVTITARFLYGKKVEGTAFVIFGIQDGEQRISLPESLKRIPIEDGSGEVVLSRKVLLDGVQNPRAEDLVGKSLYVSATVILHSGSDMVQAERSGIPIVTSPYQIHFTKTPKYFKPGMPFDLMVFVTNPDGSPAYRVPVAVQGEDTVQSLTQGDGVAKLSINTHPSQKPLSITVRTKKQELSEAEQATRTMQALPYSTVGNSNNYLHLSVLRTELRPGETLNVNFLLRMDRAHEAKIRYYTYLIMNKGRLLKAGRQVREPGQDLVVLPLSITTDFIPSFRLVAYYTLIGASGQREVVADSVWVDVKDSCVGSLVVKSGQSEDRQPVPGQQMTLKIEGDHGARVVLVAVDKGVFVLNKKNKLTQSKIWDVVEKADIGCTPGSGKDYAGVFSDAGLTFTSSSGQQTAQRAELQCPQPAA
T1 sequence (P01024 749-1663 partner limits assumed): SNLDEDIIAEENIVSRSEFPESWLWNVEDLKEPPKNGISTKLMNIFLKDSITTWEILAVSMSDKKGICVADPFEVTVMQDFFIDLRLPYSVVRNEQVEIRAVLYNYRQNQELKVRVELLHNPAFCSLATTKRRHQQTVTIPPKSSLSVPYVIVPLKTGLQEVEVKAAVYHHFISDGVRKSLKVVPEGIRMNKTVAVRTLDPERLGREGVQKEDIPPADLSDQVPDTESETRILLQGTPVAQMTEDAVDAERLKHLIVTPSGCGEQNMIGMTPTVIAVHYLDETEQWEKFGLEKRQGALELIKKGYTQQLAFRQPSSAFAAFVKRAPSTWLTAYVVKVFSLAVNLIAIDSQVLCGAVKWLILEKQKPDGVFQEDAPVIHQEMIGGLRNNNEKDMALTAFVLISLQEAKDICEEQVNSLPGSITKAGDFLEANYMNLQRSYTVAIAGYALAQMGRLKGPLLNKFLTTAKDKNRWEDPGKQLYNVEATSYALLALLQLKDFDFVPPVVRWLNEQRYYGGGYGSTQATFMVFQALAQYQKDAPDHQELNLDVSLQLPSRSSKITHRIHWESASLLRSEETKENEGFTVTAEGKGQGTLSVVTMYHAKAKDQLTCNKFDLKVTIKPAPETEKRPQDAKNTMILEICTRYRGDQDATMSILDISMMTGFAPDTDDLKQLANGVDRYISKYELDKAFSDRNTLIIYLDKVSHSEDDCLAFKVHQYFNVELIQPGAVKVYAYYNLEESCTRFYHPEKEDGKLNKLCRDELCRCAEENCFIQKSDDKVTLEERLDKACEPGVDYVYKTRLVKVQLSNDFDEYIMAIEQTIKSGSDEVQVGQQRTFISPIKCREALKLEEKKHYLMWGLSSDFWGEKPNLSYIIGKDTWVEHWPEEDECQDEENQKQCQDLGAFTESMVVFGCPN
In words: SPR binding affinity and kinetic profile with immobilized C3b. Particulars: 25 °C. For orientation: In SPR one partner is held on a chip, and binding of the other changes the refractive index at the surface.

The next test has as its target T2, purified human C3b (Homo sapiens, UniProt P01024).
T2 construct: purchased Complement Technology, Inc., Tyler, TX
In words: SPR C3b-binding activity of compound present in vitreous samples. The procedure:
To confirm that the compound present in the NHP vitreous maintains C3b-binding activity, which is a prerequisite for eliciting its inhibitory action across all complement pathways, surface plasmon resonance (SPR) binding experiments were conducted. Briefly, for a positive binding control, serial dilutions of Cp40-KKK (16, 8, 4, and 2 nM) were added to rabbit vitreous samples and flowed onto a Biacore CM5 chip immobilized with purified human C3b (Complement Technology Inc, Tyler, TX) (see FIG. 19A). Next, vitreous samples were collected from a Cp40-KKK injected eye at day 14 post-injection and subjected to heat-inactivation at 95° C. for 5 min. Both heat-inactivated and non-heat-inactivated samples were flowed onto a CM5 chip immobilized with purified human C3b as indicated above (FIG. 19B).

Setting [2] is: NHP vitreous, day 14 post-injection.

“Also recorded” adds a separate entry of the source.

T2 sequence (P01024 23-667 limits assumed): as the sequence (P01024 23-667 limits assumed) above
T2 sequence (P01024 749-1663 partner limits assumed): as the sequence (P01024 749-1663 partner limits assumed) above

The IC50 is the concentration that inhibits the measured activity by half. High values mean weaker potency in that assay, low ones greater potency in that assay. As a reminder, the Kd is the constant that tells how readily two partners part at equilibrium. `CC[C@H](C)[C@H](NC(=O)[C@H](N)Cc1ccc(O)cc1)C(=O)N[C@H]1CSSC[C@@H](C(=O)N(C)[C@H](C(=O)N[C@@H](CCCCN)C(=O)N[C@@H](CCCCN)C(=O)N[C@@H](CCCCN)C(N)=O)[C@@H](C)CC)NC(=O)[C@H](CCCNC(=N)N)NC(=O)[C@H](Cc2c[nH]cn2)NC(=O)[C@H](C)NC(=O)CN(C)C(=O)[C@H](Cc2c[nH]c3ccccc23)NC(=O)[C@H](CC(=O)O)NC(=O)[C@H](CCC(N)=O)NC(=O)[C@H](Cc2cn(C)c3ccccc23)NC(=O)[C@H](C(C)C)NC1=O` [Cp40-KKK, DTyr-Ile-[Cys-Val-Trp(Me)-Gln-Asp-Trp-Sar-Ala-His-Arg-Cys]-mlle-Lys-Lys-Lys—NH2] showed a concentration for half-maximal inhibition (IC50) in test [1] of 0.0817 ± 0.0053 µM. In addition, at human C3b (1:1 Langmuir model), the “kd, dissociation constant” value is on record as 1.24 ± 0.42 10^−3s^−1. Besides, the equilibrium dissociation constant (Kd) at human C3b (KD=kd/ka, read-out: KD, equilibrium dissociation constant) is 0.00021 ± 9e-05 µM. Also, on purified human C3b (setting [2]), the “C3b-binding signal, heat-inactivated vitreous sample” value is listed as 10 relative units and the “C3b-binding signal, non-heat inactivated vitreous sample” value came out at 2 relative units. Further, the “C3b binding in vitreous” value at purified human C3b (spiked rabbit vitreous or injected NHP eye) is listed as “binds to C3b in a dose-dependent manner; also recorded: maintains its C3b-binding activity”.

Values taken from US11884747B2, “Compstatin analogs with increased solubility and improved pharmacokinetic properties” (The Trustees of the University of Pennsylvania, priority 2018, dated 2024).
